This passage reports Ratio and bioavailability results from ChEMBL document CHEMBL1154289, “Structure based design of novel irreversible FAAH inhibitors” (Bioorg Med Chem Lett, 2009).

Series [1] addresses T1, Fatty-acid amide hydrolase 1 (Rattus norvegicus) (UniProt P97612).
T1 sequence (whole entry): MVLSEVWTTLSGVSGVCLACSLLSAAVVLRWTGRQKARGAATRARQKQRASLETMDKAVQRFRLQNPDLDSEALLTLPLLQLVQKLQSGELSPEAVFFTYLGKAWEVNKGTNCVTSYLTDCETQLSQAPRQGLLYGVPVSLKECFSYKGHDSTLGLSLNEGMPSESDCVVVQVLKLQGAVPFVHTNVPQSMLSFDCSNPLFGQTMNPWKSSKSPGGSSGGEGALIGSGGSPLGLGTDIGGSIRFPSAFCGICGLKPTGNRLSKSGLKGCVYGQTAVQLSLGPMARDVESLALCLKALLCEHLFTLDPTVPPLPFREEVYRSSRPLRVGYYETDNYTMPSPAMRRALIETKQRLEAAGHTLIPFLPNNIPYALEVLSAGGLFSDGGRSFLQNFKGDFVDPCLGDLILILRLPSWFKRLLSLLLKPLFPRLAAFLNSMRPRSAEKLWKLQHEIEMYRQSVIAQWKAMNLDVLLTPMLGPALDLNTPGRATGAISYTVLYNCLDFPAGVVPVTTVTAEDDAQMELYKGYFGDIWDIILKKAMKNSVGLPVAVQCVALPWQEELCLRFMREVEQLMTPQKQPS
The series is described as follows: Inhibition of rat FAAH assessed as ratio of Kinact to Ki.

The target in series [2] is T2, Fatty-acid amide hydrolase 1 (Homo sapiens) (UniProt O00519).
T2 sequence (whole entry): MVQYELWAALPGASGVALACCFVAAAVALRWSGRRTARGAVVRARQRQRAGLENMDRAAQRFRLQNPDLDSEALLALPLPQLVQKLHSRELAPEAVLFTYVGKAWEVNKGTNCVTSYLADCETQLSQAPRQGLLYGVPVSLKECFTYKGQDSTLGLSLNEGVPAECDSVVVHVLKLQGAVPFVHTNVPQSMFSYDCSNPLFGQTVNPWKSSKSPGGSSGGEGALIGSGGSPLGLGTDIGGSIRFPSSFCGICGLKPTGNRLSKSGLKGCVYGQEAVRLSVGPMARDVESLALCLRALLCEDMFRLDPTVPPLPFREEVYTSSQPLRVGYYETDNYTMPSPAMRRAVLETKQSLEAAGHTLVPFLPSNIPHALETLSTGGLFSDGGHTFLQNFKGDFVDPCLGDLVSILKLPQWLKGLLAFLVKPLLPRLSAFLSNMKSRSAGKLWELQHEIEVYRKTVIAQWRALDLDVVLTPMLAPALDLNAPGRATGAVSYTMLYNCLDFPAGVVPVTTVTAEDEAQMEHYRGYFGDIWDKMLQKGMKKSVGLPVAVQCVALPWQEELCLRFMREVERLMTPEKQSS
The series is described as follows: Inhibition of human FAAH assessed as ratio of Kinact to Ki.

Series [3] is described as follows: Bioavailability in rat. Particulars: in vivo. The class given is ADME, organism-based.

Structures are written as SMILES. The source made the active and inactive calls. The rule behind the calls is not given here.

For the compound `Cc1noc(NC(=O)N2CC(CCCc3cccc(Oc4ccc(C(F)(F)F)cn4)c3)C2)c1C`, the Ratio is 15300 M⁻¹ s⁻¹ in series [1] and 1450 M⁻¹ s⁻¹ in series [2].

For `O=C(Nc1cncc2[nH]ccc12)N1CC(CCCc2cccc(Oc3ccc(C(F)(F)F)cn3)c2)C1`, the Ratio in series [1] is 5160 M⁻¹ s⁻¹; in series [2], 881 M⁻¹ s⁻¹.

Take `O=C(Nc1cccnc1)N1CC(C/C=C/c2cccc(Oc3ccc(C(F)(F)F)cn3)c2)C1`: the Ratio in series [1] is 2310 M⁻¹ s⁻¹; in series [2] it was 2100 M⁻¹ s⁻¹.

Take `O=C(Nc1cccnc1)N1CC(C/C=C\c2cccc(Oc3ccc(C(F)(F)F)cn3)c2)C1`: the Ratio entry in series [1] is “inactive”. Besides, the Ratio in series [2] is 782 M⁻¹ s⁻¹.

In the case of `O=C(Nc1cccnc1)N1CC(=CCCc2cccc(Oc3ccc(C(F)(F)F)cn3)c2)C1`, the Ratio came out at 1310 M⁻¹ s⁻¹ in series [1] and 621 M⁻¹ s⁻¹ in series [2].

On to `O=C(Nc1cccnc1)N1CC(/C=C\Cc2cccc(Oc3ccc(C(F)(F)F)cn3)c2)C1`, for which the Ratio in series [1] came out at 5390 M⁻¹ s⁻¹; in series [2] it was 9000 M⁻¹ s⁻¹. The bioavailability in series [3] turned out to be 73%.

Take `O=C(Nc1cccnn1)N1CC(CCCc2cccc(Oc3ccc(C(F)(F)F)cn3)c2)C1`: the Ratio stood at 1840 M⁻¹ s⁻¹ in series [1] and 3030 M⁻¹ s⁻¹ in series [2].

Regarding `O=C(Nc1cccnc1)N1CC(C#CCc2cccc(Oc3ccc(C(F)(F)F)cn3)c2)C1`, the Ratio in series [1] was 465 M⁻¹ s⁻¹; in series [2] it was 861 M⁻¹ s⁻¹.

In the case of `O=C(Nc1cccnc1)N1CC(CCCc2cccc(Oc3ccc(C(F)(F)F)cn3)c2)C1`, the values for the Ratio in series [1] and in series [2] were 688 M⁻¹ s⁻¹ and 1090 M⁻¹ s⁻¹, respectively.

As for `O=C(Nc1cccnc1)N1CC(/C=C/Cc2cccc(Oc3ccc(C(F)(F)F)cn3)c2)C1`, the Ratio was found to be 2380 M⁻¹ s⁻¹ in series [1] and 9340 M⁻¹ s⁻¹ in series [2]. Besides, in series [3], the bioavailability was 93%.
